Series [1] has as its system renal tissue of Mus musculus mice. In words: Oxidative stress and kidney toxicity markers in renal tissue after repeated antibiotic administration to mice. The format is in vivo.
Series [2] has as its system K. pneumoniae (10031 ATCC). In words: Zone of inhibition. The format is cell-based. Also noted: unit not given beside the values. An excerpt:
(§1) Where X and Y are respective additive agents mixed in the formulation with water for injection.

The test system of series [3] is A. baumannii (1425 MTCC). In words: Zone of inhibition. Format: cell-based. More on the design: unit not given beside the values.
Source text: as §1

Series [4] has as its system P. aeruginosa (1688 MTCC). In words: Zone of inhibition. Also noted: unit not given beside the values. The format is cell-based.
Source text: as §1

In series [5] the test system is C. braakii (2690 MTCC). In words: Zone of inhibition. More on the design: unit not given here. The format is cell-based.
Source text: as §1

For series [6], the system named is S. aureus (737 MTCC). In words: Zone of inhibition. The format is cell-based. More on the design: unit not given here.
Source text: as §1

Series [7] relates to E. coli (1687 MTCC). In words: Zone of inhibition. Format: cell-based. Also noted: unit not given here.
Source text: as §1

For series [8], the system named is P. vulgaris (426 MTCC). In words: Zone of inhibition. The format is cell-based. Also noted: unit not given here.
Source text: as §1

Series [9] relates to M. smegmatis MTCC 995. In words: In-vitro microbial efficacy (MIC). The format is cell-based.
Series [10] deals with P. aeruginosa MTCC 1688. In words: In-vitro microbial efficacy (MIC). The format is cell-based.
Series [11] concerns P. vulgaris MTCC 426. In words: In-vitro microbial efficacy (MIC). The format is cell-based.
The test system of series [12] is E. cloacae MTCC 509. In words: In-vitro microbial efficacy (MIC). The format is cell-based.
Series [13] relates to B. subtilis MTCC 736. In words: In-vitro microbial efficacy (MIC). Format: cell-based.
The test system of series [14] is MRSA. In words: In-vitro microbial efficacy (MIC). Format: cell-based.
Series [15] concerns E. coli MTCC 1687. In words: In-vitro microbial efficacy (MIC). The format is cell-based.
Series [16] deals with C. braakii MTCC 2690. In words: In-vitro microbial efficacy (MIC). Format: cell-based.
Series [17] relates to S. aureus MTCC 737. In words: In-vitro microbial efficacy (MIC). Format: cell-based.
Series [18] has as its system A. baumanii MTCC 1425. In words: In-vitro microbial efficacy (MIC). Format: cell-based.
Series [19] deals with N. mucosa MTCC 1722. In words: In-vitro microbial efficacy (MIC). The format is cell-based.
In series [20] the test system is K. pneumoniae 10031(ATCC). In words: In-vitro microbial efficacy (MIC). The format is cell-based.

The structures appear in SMILES notation. ≈ marks a conversion by molar mass, not a printed value. Where “and” joins values, the source holds several entries; their conditions need not be identical. Equal values may be shown once. Read-outs that look alike come from different tables or passages of the source.

Here are results for five compounds from US20110186457A1, “NOVEL SINGLE UNIT CARBAPENEM AMINOGLYCOSIDE FORMULATIONS” (priority 2008, published 2011).

`NCC[C@H](O)C(=O)N[C@@H]1C[C@H](N)[C@@H](O[C@H]2O[C@H](CN)[C@@H](O)[C@H](O)[C@H]2O)[C@H](O)[C@H]1O[C@H]1O[C@H](CO)[C@@H](O)[C@H](N)[C@H]1O` [Amikacin]: in series [1] (mouse, in vivo), the “Catalase activity in renal tissue” value is given as “decrease”, the “Glutathione reductase activity in renal tissue” value (from here on “Glutathione reductase activity”) was “decrease”, the “MDA activity in renal tissue” value was “increase” and the “SOD activity in renal tissue” value is recorded as “decrease”.
As to `C[C@@H](O)[C@H]1C(=O)N2C(C(=O)O)=C(S[C@@H]3CN[C@H](C(=O)Nc4cccc(C(=O)O)c4)C3)[C@H](C)[C@H]12` [Ertapenem], the “Zone of Inhibition” value is “Nil” in [2] (drug concentration 0.005 mcg); “Nil” in series [2] (drug concentration 0.05 mcg); 15.90 in [2] (drug concentration 0.5 mcg); “Nil” in series [3] (drug concentration 0.005 mcg); 13.37 in series [3] (drug concentration 0.05 mcg); 18.25 in [3] (drug concentration 0.5 mcg). For the same compound, the “Zone of Inhibition” value in series [4] (drug concentration 0.005 mcg) is reported as “Nil”; in series [4] (drug concentration 0.05 mcg), “Nil”; in [4] (drug concentration 0.5 mcg), “Nil”; in [5] (drug concentration 0.005 mcg), 10.52; in series [5] (drug concentration 0.05 mcg), 18.95; in series [5] (drug concentration 0.5 mcg), 27.88. Also, the “Zone of Inhibition” value in series [6] (drug concentration 0.005 mcg) was found to be 9.44; in series [6] (drug concentration 0.05 mcg), 14.55; in series [6] (drug concentration 0.5 mcg) it was 21.33; in [7] (drug concentration 0.005 mcg), 10.10; in [7] (drug concentration 0.05 mcg), 15.49; in series [7] (drug concentration 0.5 mcg) it was 21.45. Also, the “Zone of Inhibition” value in series [7] (drug concentration 1.0 mcg) stood at 23.39; in series [8] (drug concentration 0.005 mcg), 9.54; in series [8] (drug concentration 0.05 mcg), 16.74; in series [8] (drug concentration 0.5 mcg) it was 18.50.
The MIC is the smallest concentration in the dilution series that meets the test's criterion for growth inhibition. As for `CCN[C@@H]1C[C@H](N)[C@@H](O[C@H]2O[C@H](CN)CC[C@H]2N)[C@H](O)[C@H]1O[C@H]1OC[C@](C)(O)[C@H](NC)[C@H]1O` [Etimicin], the MIC came to 2 µg/mL (≈ 4.19 µM) in [9]; 8 µg/mL (≈ 16.8 µM) in series [10]; 4 µg/mL (≈ 8.38 µM) in series [11]; 2 µg/mL (≈ 4.19 µM) in series [12]; 8 µg/mL (≈ 16.8 µM) in series [13]; 4 µg/mL (≈ 8.38 µM) in [14]. The MIC in series [15] amounted to 0.125 µg/mL (≈ 0.262 µM); in [16], 2 µg/mL (≈ 4.19 µM); in [17] it was 8 µg/mL (≈ 16.8 µM); in series [18], 2 µg/mL (≈ 4.19 µM); in [19], 1 µg/mL (≈ 2.09 µM); in [20], 8 µg/mL (≈ 16.8 µM). For the same compound, the “Creatnine level in renal tissue” value in series [1] (Mus musculus mice, repeated administration for 7 days consecutively (FIG. 5)) is “significantly decreased”. Also, the “SOD activity in renal tissue” value in series [1] (mice, after administration of antibiotic (FIG. 1)) is on record as “decrease”. Also, the “Catalase activity in renal tissue” value in series [1] (mice, after administration of antibiotic (FIG. 2)) is “decrease”. In series [1] (mice, after administration of antibiotic (FIG. 3)), the “MDA activity in renal tissue” value was “increase”. The “Glutathione reductase activity” value in series [1] (mice, after administration of antibiotic (FIG. 4)) is reported as “decrease”. The “Zone of Inhibition” value in [2] (drug concentration 0.005 mcg) is “nil and Nil”; in [2] (drug concentration 0.05 mcg) it was “nil and Nil”; in [2] (drug concentration 0.5 mcg) it was 16.64 and 16.50; in [3] (drug concentration 0.005 mcg), “Nil”; in series [3] (drug concentration 0.5 mcg), 13.5 and 12.88; in series [4] (drug concentration 0.005 mcg), “Nil”. The “Zone of Inhibition” value in [4] (drug concentration 0.05 mcg) was “Nil”; in series [4] (drug concentration 0.5 mcg), 12.49 and 12.60; in [5] (drug concentration 0.005 mcg), “Nil”; in series [5] (drug concentration 0.05 mcg) it was “Nil”; in series [5] (drug concentration 0.5 mcg) it was 18.70 and 19.10; in series [6] (drug concentration 0.005 mcg) it was “Nil”. The “Zone of Inhibition” value was 11.15 and 10.12 in [6] (drug concentration 0.05 mcg); 17.50 and 16.65 in series [6] (drug concentration 0.5 mcg); “Nil” in series [7] (drug concentration 0.005 mcg); 9.42 and 9.31 in series [7] (drug concentration 0.05 mcg); 16.50 and 15.70 in [7] (drug concentration 0.5 mcg); 17.57 in [7] (drug concentration 1.0 mcg). Besides, the “Zone of Inhibition” value was “Nil” in series [8] (drug concentration 0.005 mcg); “Nil” in [8] (drug concentration 0.05 mcg); 15.19 and 13.97 in series [8] (drug concentration 0.5 mcg).
As to `C[C@@H](O)[C@H]1C(=O)N2C(C(=O)O)=C(S[C@@H]3CN[C@H](C(=O)N(C)C)C3)[C@H](C)[C@H]12` [Meropenem], the MIC came to 0.25 µg/mL (≈ 0.652 µM) in [9] (Mycolicibacterium smegmatis, MTCC995, read-out: MIC); 2 µg/mL (≈ 5.22 µM) in series [10] (Pseudomonas aeruginosa, MTCC1688, read-out: MIC); 0.0625 µg/mL (≈ 0.163 µM) in [11] (Proteus vulgaris, MTCC426, read-out: MIC); 0.125 µg/mL (≈ 0.326 µM) in series [12] (Enterobacter cloacae, MTCC509, read-out: MIC); 2 µg/mL (≈ 5.22 µM) in [13] (Bacillus subtilis, MTCC736, read-out: MIC); 0.5 µg/mL (≈ 1.3 µM) in [14] (Staphylococcus aureus, read-out: MIC). Moreover, the MIC is 0.0625 µg/mL (≈ 0.163 µM) in series [15] (Escherichia coli, MTCC1687, read-out: MIC); 0.25 µg/mL (≈ 0.652 µM) in [16] (Citrobacter braakii, MTCC2690, read-out: MIC); 0.5 µg/mL (≈ 1.3 µM) in series [17] (Staphylococcus aureus, MTCC737, read-out: MIC); 0.125 µg/mL (≈ 0.326 µM) in series [18] (Acinetobacter baumannii, MTCC1425, read-out: MIC); 0.125 µg/mL (≈ 0.326 µM) in series [19] (read-out: MIC); 1 µg/mL (≈ 2.61 µM) in series [20] (Klebsiella pneumoniae, read-out: MIC). The “Catalase activity in renal tissue” value in [1] (mouse, in vivo) is recorded as “decrease”. Further, in [1] (mouse, in vivo), the “Glutathione reductase activity” value is recorded as “decrease”. For the same compound, the “MDA activity in renal tissue” value in [1] (mouse, in vivo) is “increase”. Moreover, in series [1] (mouse, in vivo), the “SOD activity in renal tissue” value was “decrease”. In addition, the “Zone of Inhibition” value in [2] (drug concentration 0.005 mcg) is on record as “Nil”; in [2] (drug concentration 0.05 mcg), 14.36; in series [2] (drug concentration 0.5 mcg), 23.87; in series [3] (drug concentration 0.005 mcg) it was “Nil”; in series [3] (drug concentration 0.05 mcg), 14.50; in [3] (drug concentration 0.5 mcg) it was 19.81. The “Zone of Inhibition” value in series [4] (drug concentration 0.005 mcg) is “Nil”; in series [4] (drug concentration 0.05 mcg) it was 13.64; in series [4] (drug concentration 0.5 mcg), 21.85; in series [5] (drug concentration 0.005 mcg), 9.35; in [5] (drug concentration 0.05 mcg), 23.35; in [5] (drug concentration 0.5 mcg), 28.60. Besides, the “Zone of Inhibition” value is given as 11.45 in [6] (drug concentration 0.005 mcg); 16.29 in [6] (drug concentration 0.05 mcg); 22.76 in series [6] (drug concentration 0.5 mcg); 8.88 in series [7] (drug concentration 0.005 mcg); 15.70 in [7] (drug concentration 0.05 mcg); 22.97 in series [7] (drug concentration 0.5 mcg). For the same compound, the figures for the “Zone of Inhibition” value in series [8] (drug concentration 0.005 mcg), in series [8] (drug concentration 0.05 mcg) and in [8] (drug concentration 0.5 mcg) were 10.84, 18.01 and 21.32, respectively.
For `NC[C@H]1O[C@H](O[C@H]2[C@H](O)[C@@H](O[C@H]3O[C@H](CO)[C@@H](O)[C@H](N)[C@H]3O)[C@H](N)C[C@@H]2N)[C@H](N)C[C@@H]1O` [Tobramycin], in series [1] (mouse, in vivo), the “Catalase activity in renal tissue” value was “decrease”, the “Glutathione reductase activity” value is recorded as “decrease”, the “MDA activity in renal tissue” value is on record as “increase” and the “SOD activity in renal tissue” value was “decrease”.
